# Results: patent US8269024B2, “Compounds and methods for modulating communication and virulence in quorum sensing bacteria” (priority 2005, dated 2012)
# Like-named read-outs stand apart in the source and are kept apart here. Marks after values point to notes of the source that are not given here.
# How the values were obtained:
# [1] = target: T1, LasR (Pseudomonas aeruginosa, UniProt P25084); assay: Pseudomonas aeruginosa reporter gene assay, PAO-JP2(plasI-LVAgfp), GFP fluorescence readout; format: cell-based; conditions: for antagonism against LasR in P. aeruginosa: antagonism screen in presence of native ligand 8d; for P. aeruginosa Relative fluorescence [%] 12.5 μM / P. aeruginosa Relative fluorescence [%] 400 μM: antagonism, relative to agonism by 8d at 1 μM set to 100%; for P. aeruginosa Relative fluorescence [%] 12.5 μM: compound at 12.5 μM screened against 1 μM 8d; for P. aeruginosa Relative fluorescence [%] 400 μM: compound at 400 μM screened against 1 μM 8d; for activity relative to the three controls (7g, 8f, 9): at 400 μM
# T1 construct: Both of these reporter strains lack their native AHL synthases, yet retain active LuxR-type receptors (LasR and TraR proteins, respectively); endogenous in cells; host or cells: P. aeruginosa PAO-JP2(plasI-LVAgfp)
# Source text: (§1) The AHL library constructed by the schema described above, was screened in two bacterial reporter strains for antagonism of quorum sensing: 1) P. aeruginosa PAO-JP2(plasI-LVAgfp), (De Kievit, T. R.; Gillis, R.; Marx, S.; Brown, C.; Iglewski, B. H. Appl. Environ. Microbiol. 2001, 67, 1865-1873) and 2) A. tumefaciens WCF47 (pCF372). Examination of these two strains was valuable for two reasons: 1) the direct clinical relevance of P. aeruginosa, and 2), the extensive body of biochemical and structural data for TraR in A. tumefaciens. Both of these reporter strains lack their native AHL synthases, yet retain active LuxR-type receptors (LasR and TraR proteins, respectively); exogenous ligand is required for receptor activation, which can be measured by fluorescence (green fluorescent protein (GFP) for LasR) or absorbance (via β-galactosidase activity for TraR) measurements.
# An appropriate amount of concentrated stock solution, to give a final concentration of 1 μM, was added to a polypropylene 96-well plate, and the solvent was allowed to evaporate. An overnight culture of P. aeruginosa PAO-JP2(plasI-LVAgfp) was diluted to an OD600 of 0.1 in fresh LB medium containing 200 μg/mL carbenicillin. 200 μL of the diluted culture was added to each well of the plate and incubated at 37° C. for 6 h in a rotary shaking incubator (200 rpm). Cultures were transferred to a polystyrene 96-well plate, GFP expression was measured using a plate reader, and this value was normalized to cell density. Similar methods were used for antagonism assays, illustrated in FIG. […] All assays were performed in triplicate.
# [2] = target: T2, TraR (Agrobacterium tumefaciens, UniProt P33905); assay: Agrobacterium tumefaciens reporter gene assay, WCF47(pCF372), β-galactosidase (Miller) readout; format: cell-based; conditions: for activity against TraR in A. tumefaciens: antagonism screen in presence of native ligand 8b; for A. tumefaciens β-galactosidase activity [Miller units] 10^4 nM: antagonism, compound at 10^4 nM screened against 100 nM 8b, strain WCF47(pCF372); for activity relative to previously reported antagonists 7g, 8f and 9: controls at 10 μM
# T2 construct: Both of these reporter strains lack their native AHL synthases, yet retain active LuxR-type receptors (LasR and TraR proteins, respectively); endogenous in cells; host or cells: A. tumefaciens WCF47(pCF372)
# Source text: as §1
# An appropriate amount of concentrated AHL stock solution, to give a final concentration of 100 nM, was added to an empty culture tube, and the solvent was allowed to evaporate. An overnight culture of A. tumefaciens WCF47(pCF372) was diluted to an OD600 (optical density) of 0.1 in fresh AB minimal medium containing 400 μg/mL octopine and 50 μg/mL streptomycin. A 1 mL portion of the diluted culture was added to the tubes containing AHLs. Tubes were grown at 28° C. for 12-16 h in a rotary shaking incubator (200 rpm).
# The cultures were then assayed for β-galactosidase activity following the Miller assay method. Briefly, 100 μL aliquots of bacteria from each of the tubes were added to wells of a polystyrene 96-well plate and the OD600 of each well was recorded. Next, […] aliquots from each well were transferred to a solvent resistant 96-well plate containing 200 μL Z buffer, 8 μL CHCl3 and 4 μL, 0.1% aq. sodium dodecylsulfate (SDS). This suspension was mixed via repetitive pipetting, after which the CHCl3 was allowed to settle. A 100 μL aliquot from each well was transferred to a fresh polystyrene 96-well plate, and 20 μL of substrate, o-nitrophenyl-β-D-galactopyranoside (ONPG, […] in phosphate buffer), was added at time zero. After the development of appropriate yellow color (ca. 15-35 minutes), the reaction was terminated by the addition of 50 μL of 1 M Na2CO3. Absorbance at 420 nm and 550 nm was measured for each well using a plate reader, and Miller units were calculated according to standard methods.
# Similar methods were used for antagonism assays, except the concentration of AHL analog used was 10^4 nM, and OOHL (8b) stock solution was added to each tube such that its concentration was 100 nM (FIG. 30). […] All assays were performed in triplicate.
# [3] = target: T2, TraR; assay: as above; format: cell-based; conditions: for A. tumefaciens β-galactosidase activity [Miller units] 100 nM: antagonism, compound at 100 nM screened against 100 nM 8b, strain WCF47(pCF372)
# [4] = tested on: P. aeruginosa (PAO1(pLVAgfp)) biofilm formation; assay: Static biofilm assay, scanning laser confocal microscopy; format: cell-based, Pseudomonas aeruginosa; conditions: 48 h; for P. aeruginosa biofilm formation: 50 μM ligand, glass slides; for dose dependence of biofilm disruption: 50, 25 and 12.5 μM
# Method: Standard static biofilm assays were performed using a P. aeruginosa (PAO1(pLVAgfp)) strain that constitutively produces GFP to facilitate visualization. Biofilms were grown in the absence of ligand (FIG. 34A) and in the presence of 50 μM synthetic ligands 7h (FIG. 34B) or 7o (FIG. 34C), for 48 h and visualized using scanning laser confocal microscopy.
# Standard static biofilm assays were performed using a P. aeruginosa PAO1(pTdK-GFP). In brief, an overnight culture was diluted to an OD600 of 0.1 in fresh M9 medium containing 200 μg/mL carbenicillin. This diluted culture was added to a tube containing 50 μM antagonist. Biofilms were grown in the absence of ligand, FIG. 35A; in the presence synthetic ligand 7h, FIG. 35B; and in the presence of synthetic ligand 7o, FIG. 35C (both at 50 μM) for 48 h and visualized using scanning laser confocal microscopy. A sterilized glass coverslip was added to each tube, and the culture was incubated at 37° C. for 48 h without shaking. Coverslips were removed, washed with phosphate buffered saline, and examined using scanning laser confocal microscopy methods. Top-down Z series were collected over a distance of ca. 100 μm. Images in FIGS. 35-37 are representative of several experiments performed on separate days.
# T2 sequence (P33905 whole entry): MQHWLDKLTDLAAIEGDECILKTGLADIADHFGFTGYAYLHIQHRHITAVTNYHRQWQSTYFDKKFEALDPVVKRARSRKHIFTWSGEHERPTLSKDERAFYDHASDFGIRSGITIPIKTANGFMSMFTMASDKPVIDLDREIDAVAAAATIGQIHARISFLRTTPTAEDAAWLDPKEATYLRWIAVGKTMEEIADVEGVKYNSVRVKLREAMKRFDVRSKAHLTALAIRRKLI
# T1 sequence (P25084 whole entry): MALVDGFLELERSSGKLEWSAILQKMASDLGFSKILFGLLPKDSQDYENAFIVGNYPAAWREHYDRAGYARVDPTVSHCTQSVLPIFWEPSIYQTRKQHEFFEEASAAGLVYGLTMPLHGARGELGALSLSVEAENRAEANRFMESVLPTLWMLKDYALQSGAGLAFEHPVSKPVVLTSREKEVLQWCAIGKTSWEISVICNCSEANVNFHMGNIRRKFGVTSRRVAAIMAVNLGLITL
Structure (SMILES),IC50 [1] [µM],antagonism against LasR in P. aeruginosa [1],P. aeruginosa Relative fluorescence [%] 12.5 μM [1] [%],P. aeruginosa Relative fluorescence [%] 400 μM [1] [%],IC50 [2] [µM],activity against TraR in A. tumefaciens [2],A. tumefaciens β-galactosidase activity [Miller units] 10^4 nM [2] [Miller units],"activity relative to previously reported antagonists 7g, 8f and 9 [2]",A. tumefaciens β-galactosidase activity [Miller units] 100 nM [3] [Miller units],"activity relative to the three controls (7g, 8f, 9) [1]",inhibition (LasR antagonism) ([1]; at a 12.5:1 ratio with native ligand 8d) [%],P. aeruginosa biofilm formation [4],dose dependence of biofilm disruption [4],"IC50 ([1]; screened against 1 μM 8d, sigmoidal dose-response curve fit, read-out: P. aeruginosa IC50) [µM]","IC50 ([2]; screened against 100 nM 8b, sigmoidal dose-response curve fit, read-out: A. tumefaciens IC50) [µM]",inhibition at 0.1 µM ([3]; read-out: inhibition (TraR antagonism)) [%],"A. tumefaciens β-galactosidase activity [Miller units], control agonism activity ([2]; Control: agonism activity at 100 nM 8b alone)","P. aeruginosa Relative fluorescence [%], control relative agonism activity ([1]; Control: relative agonism activity at 1 μM 8d (not at 12.5 μM))"
"O=C(CC1C=CCC1)N[C@H]1CCOC1=O (stereo partly drawn) [Compound 7k, N-(2-cyclopentene-1-acetanoyl)-L-homoserine lactone]",33.1,identified as antagonists,72 ± 8,24 ± 7,1,significant activity,19 ± 8,one to two orders of magnitude more active,306 ± 8,–,–,–,–,–,–,–,–,–
"CCCCCCC(=O)N[C@H]1CCOC1=O [Compound 7g, N-heptanoyl-L-homoserine lactone, reference compound]",51.5,–,78 ± 9,29 ± 9,0.13,–,34 ± 6,–,226 ± 30,–,–,–,–,–,–,–,–,–
"O=C(CCCc1c[nH]c2ccccc12)N[C@@H]1CCOC1=O [Compound 7h, N-(indole-3-butanoyl)-L-homoserine lactone]",14.8,identified as antagonists,52 ± 8,14 ± 4,1.1,significant activity,150 ± 14,one to two orders of magnitude more active,245 ± 14,twice as active,50,strongly inhibit,dose-dependent disruption,–,–,–,–,–
"O=C(CC(=O)N[C@H]1CCOC1=O)Cc1ccccc1 [Compound 8f, N-(3-oxo-4-phenylbutanoyl)-L-homoserine lactone, reference compound]",53.6,–,82 ± 18,27 ± 9,0.59,–,51 ± 22,–,310 ± 6,–,–,–,–,–,–,–,–,–
"O=C(Cc1ccc(Br)cc1)N[C@H]1CCOC1=O [Compound 7o, N-(4-bromophenylacetanoyl)-L-homoserine lactone]",–,identified as antagonists,58 ± 21,14 ± 5,–,significant activity,0 ± 4,one to two orders of magnitude more active,193 ± 9,twice as active,–,strongly inhibit,dose-dependent disruption,16.1,0.25,50,–,–
"CCCCCCCCCC(=O)CC(=O)Nc1ccccc1O [Compound 9, reference compound]",37.3,–,63 ± 8,23 ± 7,4.7,–,186 ± 15,–,396 ± 27,–,–,–,–,–,–,–,–,–
"CCCCCC(=O)CC(=O)N[C@@H]1CCOC1=O [Compound 8b, N-(3-oxo-octanoyl)-L-homoserine lactone, reference compound]",–,–,–,–,–,–,–,–,–,–,–,–,–,–,–,–,385 ± 35^g Miller units,–
"CCCCCCCCCC(=O)CC(=O)N[C@@H]1CCOC1=O [Compound 8d, N-(3-oxo-dodecanoyl)-L-homoserine lactone, reference compound]",–,–,–,–,–,–,–,–,–,–,–,–,–,–,–,–,–,100 ± 8^h %
